From BindingDB's records for doi:10.1016/j.bmcl.2014.08.026 (Rhône-Poulenc Rorer, 2014) come the findings set out here.

The experiment is described as follows: Antagonist activity at CRTH2 receptor in human whole blood assessed as inhibition of PGD2-induced eosinophil shape change after 10 mins by fluorescence assay.

As to `Cc1c(Cc2ccccc2S(=O)(=O)c2ccccc2)c2c(n1CC(=O)O)CCNC2=O`, the IC50 was 8 nM.
